Measured values published in paper PMC5391474, “Investigation of the Role of Protein Kinase D in Human Rhinovirus Replication” (Journal of Virology, 2017).

Columns and labels:
Assay in all cases: biochemical
Design in all cases: in vitro kinase selectivity panel, protein and lipid kinases, single concentration, ATP at Km
Conditions in all cases: ATP at Km
CK1γ2(h) = molecular target: T1, CK1γ2(h) (Homo sapiens, UniProt P78368)
T1 construct: gene CSNK1G2
Experimental: (§1) CRT0066101 was described previously ([48]) and was purchased for this study from Tocris, with a purity of 99.9%. CRT0066101 (XX-209) and compound XX-050 were synthesized as previously described ([68]). CRT0066051 (Y-095) was also synthesized as previously described ([69]). […] CRT0066101 can also be obtained in larger quantities from Ximbio. Inhibitors were tested in in vitro PKD kinase assays and cellular assays on PANC1 cells as previously described ([48]). The selectivity of the three PKD inhibitors was determined against a panel of protein and lipid kinases by Eurofins and the MRC PPU International Centre for Kinase Profiling (http://www.kinase-screen.mrc.ac.uk), respectively. Each inhibitor was tested at a single concentration of 1 μM and at an ATP concentration equivalent to the Km for each kinase. Having shown that HRV infection appears to activate PKD, we went on to explore the influence of chemical inhibitors of PKD on HRV replication. The compound CRT0066101 is a specific and potent PKD inhibitor that has been used in studies exploring its potential as an anticancer target ([48], [51]). This inhibitor has a 50% inhibitory concentration (IC50) of 1 nM against purified PKD in biochemical assays and a 50% effective concentration (EC50) of 1 μM in a cell-based assay (Table 1). We pretreated HeLa cells with increasing concentrations of the drug for 1 h followed by infection with HRV16. Viral replication was subsequently measured at 6 hpi by quantitative real-time PCR (qRT-PCR) (Fig. 2A) and by Western blotting using an antibody against the viral nonstructural protein 2C (Fig. 2B). […] Furthermore, we tested two novel and structurally different PKD inhibitors (CRT0066051 and XX-050) (Table 1) and confirmed that they too inhibited HRV 2C expression although with different potencies (Fig. 2D). Kinase selectivity profiling of all three PKD inhibitors was performed against a panel of protein and lipid kinases at a drug concentration of 1 μM and at an ATP concentration equivalent to the Km of each kinase (see Table S1 in the supplemental material). […] Since PKD is known to be involved in regulating the architecture of the Golgi apparatus, we confirmed the pharmacodynamic effect of these inhibitors by demon

PKCθ(h) = molecular target: T2, PKCθ(h) (Homo sapiens, UniProt Q04759)
T2 construct: gene PRKCQ
Experimental: as §1

Tie2 (h) = molecular target: T3, Tie2 (h) (Homo sapiens, UniProt Q02763)
T3 construct: gene TEK
T3 sequence (Q02763 whole entry): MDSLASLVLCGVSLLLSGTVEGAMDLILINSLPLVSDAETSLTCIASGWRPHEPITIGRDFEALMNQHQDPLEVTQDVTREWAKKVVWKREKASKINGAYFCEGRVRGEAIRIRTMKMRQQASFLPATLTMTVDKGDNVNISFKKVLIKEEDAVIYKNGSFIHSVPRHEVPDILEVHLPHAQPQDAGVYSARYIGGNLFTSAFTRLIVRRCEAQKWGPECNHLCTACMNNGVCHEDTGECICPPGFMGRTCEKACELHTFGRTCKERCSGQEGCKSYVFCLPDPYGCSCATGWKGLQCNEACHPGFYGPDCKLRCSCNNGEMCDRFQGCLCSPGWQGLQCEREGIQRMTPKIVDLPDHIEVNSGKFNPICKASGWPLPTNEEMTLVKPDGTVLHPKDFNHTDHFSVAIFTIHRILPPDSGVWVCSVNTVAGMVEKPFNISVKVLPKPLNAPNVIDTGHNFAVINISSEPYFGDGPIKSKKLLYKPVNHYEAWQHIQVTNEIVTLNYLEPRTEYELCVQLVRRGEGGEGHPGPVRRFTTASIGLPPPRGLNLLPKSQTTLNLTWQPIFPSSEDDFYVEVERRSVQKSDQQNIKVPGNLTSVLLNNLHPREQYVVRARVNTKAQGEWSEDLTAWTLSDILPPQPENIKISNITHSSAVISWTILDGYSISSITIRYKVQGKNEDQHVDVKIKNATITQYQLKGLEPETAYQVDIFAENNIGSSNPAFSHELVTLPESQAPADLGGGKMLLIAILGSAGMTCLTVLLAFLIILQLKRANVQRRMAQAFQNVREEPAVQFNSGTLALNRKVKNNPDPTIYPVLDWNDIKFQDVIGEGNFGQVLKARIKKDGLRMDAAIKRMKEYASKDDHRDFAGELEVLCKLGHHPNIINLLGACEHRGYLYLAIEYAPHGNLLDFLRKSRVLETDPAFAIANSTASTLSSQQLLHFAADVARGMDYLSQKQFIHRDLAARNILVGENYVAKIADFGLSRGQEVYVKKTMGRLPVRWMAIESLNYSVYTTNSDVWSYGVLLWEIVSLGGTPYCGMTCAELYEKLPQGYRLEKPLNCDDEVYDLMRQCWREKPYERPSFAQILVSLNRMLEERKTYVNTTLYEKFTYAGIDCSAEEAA
Experimental: as §1

HIPK2(h) = HIPK2(h) (Homo sapiens, UniProt Q9H2X6)
HIPK2(h), sequence (Q9H2X6 whole entry): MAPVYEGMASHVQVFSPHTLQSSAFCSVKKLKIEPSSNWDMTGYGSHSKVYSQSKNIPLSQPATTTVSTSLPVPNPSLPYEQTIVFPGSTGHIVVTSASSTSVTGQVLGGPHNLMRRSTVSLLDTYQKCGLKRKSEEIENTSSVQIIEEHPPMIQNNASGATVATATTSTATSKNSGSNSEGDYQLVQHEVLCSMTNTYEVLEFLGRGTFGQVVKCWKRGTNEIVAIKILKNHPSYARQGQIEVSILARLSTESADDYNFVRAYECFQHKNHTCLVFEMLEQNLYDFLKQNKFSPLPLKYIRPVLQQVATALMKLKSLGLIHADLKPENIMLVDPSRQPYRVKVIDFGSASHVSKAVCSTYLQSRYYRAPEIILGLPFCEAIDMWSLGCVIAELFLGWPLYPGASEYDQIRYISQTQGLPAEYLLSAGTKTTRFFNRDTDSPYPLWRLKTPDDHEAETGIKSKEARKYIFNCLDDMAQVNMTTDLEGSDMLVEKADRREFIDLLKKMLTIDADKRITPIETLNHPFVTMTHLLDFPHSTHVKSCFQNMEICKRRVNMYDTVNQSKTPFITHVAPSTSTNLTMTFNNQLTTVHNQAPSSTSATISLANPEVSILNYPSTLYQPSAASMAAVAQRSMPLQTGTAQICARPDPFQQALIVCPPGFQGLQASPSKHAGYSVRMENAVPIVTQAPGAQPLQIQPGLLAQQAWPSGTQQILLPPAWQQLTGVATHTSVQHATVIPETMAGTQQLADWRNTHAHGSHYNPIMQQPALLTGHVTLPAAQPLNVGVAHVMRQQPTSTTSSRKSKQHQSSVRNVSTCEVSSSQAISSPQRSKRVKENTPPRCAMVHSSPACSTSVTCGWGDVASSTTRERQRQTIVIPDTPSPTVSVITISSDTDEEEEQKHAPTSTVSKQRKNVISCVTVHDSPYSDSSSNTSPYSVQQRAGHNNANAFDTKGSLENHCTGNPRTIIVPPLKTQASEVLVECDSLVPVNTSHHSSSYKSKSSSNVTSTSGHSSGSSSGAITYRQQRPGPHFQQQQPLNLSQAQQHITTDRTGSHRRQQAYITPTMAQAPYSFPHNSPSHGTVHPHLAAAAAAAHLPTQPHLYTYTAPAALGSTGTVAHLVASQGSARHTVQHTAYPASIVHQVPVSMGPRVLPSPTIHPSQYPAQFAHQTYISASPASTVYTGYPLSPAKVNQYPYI
Experimental: as §1

MST3(h) = molecular target: T4, MST3(h) (Homo sapiens, UniProt Q9Y6E0)
T4 construct: gene STK24
T4 sequence (Q9Y6E0 whole entry): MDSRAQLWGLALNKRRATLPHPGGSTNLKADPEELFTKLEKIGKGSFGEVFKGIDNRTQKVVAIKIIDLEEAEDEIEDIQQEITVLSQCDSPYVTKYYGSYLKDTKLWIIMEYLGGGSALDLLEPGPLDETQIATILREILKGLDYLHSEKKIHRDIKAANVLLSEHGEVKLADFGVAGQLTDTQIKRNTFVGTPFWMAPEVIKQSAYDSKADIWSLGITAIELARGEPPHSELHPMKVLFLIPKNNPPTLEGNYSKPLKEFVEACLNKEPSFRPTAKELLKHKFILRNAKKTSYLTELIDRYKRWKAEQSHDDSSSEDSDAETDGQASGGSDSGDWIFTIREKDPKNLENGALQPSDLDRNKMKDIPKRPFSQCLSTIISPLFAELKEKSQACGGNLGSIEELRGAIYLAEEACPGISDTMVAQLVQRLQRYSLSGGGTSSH
Experimental: as §1

EphA7(h) = EphA7(h) (Homo sapiens, UniProt Q15375)
Experimental: as §1

PAK4(h) = PAK4(h) (Homo sapiens, UniProt O96013)
Experimental: as §1

PKCβI(h) = molecular target: T5, PKCβI(h) (Homo sapiens, UniProt P05771)
T5 construct: gene PRKCB; isoform beta I
T5 sequence (P05771 whole entry, canonical isoform): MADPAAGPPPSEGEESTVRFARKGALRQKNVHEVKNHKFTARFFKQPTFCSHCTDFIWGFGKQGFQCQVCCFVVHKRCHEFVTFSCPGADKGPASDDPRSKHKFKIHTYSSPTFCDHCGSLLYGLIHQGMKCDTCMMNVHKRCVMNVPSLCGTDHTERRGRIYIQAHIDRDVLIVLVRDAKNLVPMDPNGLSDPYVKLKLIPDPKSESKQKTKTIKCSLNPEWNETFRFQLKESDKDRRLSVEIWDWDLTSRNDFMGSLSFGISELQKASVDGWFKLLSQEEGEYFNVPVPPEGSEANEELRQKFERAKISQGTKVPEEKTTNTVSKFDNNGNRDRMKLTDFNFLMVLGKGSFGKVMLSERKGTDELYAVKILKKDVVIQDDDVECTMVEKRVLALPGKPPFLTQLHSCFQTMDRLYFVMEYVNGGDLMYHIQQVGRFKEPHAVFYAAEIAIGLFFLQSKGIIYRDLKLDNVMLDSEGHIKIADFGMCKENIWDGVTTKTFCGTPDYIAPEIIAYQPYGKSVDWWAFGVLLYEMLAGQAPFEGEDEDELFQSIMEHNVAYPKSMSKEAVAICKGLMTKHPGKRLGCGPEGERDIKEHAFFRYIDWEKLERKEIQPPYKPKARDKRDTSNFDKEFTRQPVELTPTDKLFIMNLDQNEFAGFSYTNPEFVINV
Experimental: as §1

MST2(h) = molecular target: T6, MST2(h) (Homo sapiens, UniProt Q13188)
T6 construct: gene STK3
Experimental: as §1

Rsk1(h) = molecular target: T7, Rsk1(h) (Homo sapiens, UniProt Q15418)
T7 construct: gene RPS6KA1
Experimental: as §1

CDK2/cyclinA(h) = CDK2/cyclinA(h) (Homo sapiens, UniProt P24941)
Experimental: as §1

LIMK1(h) = LIMK1(h) (Homo sapiens, UniProt P53667)
Experimental: as §1

DGKB = DGKB (Homo sapiens, UniProt Q9Y6T7)
Experimental: as §1

EGFR(T790M)(h) = EGFR(T790M)(h) (Homo sapiens, UniProt P00533, T790M)
Experimental: as §1

FAK(h) = molecular target: T8, FAK(h) (Homo sapiens, UniProt Q05397)
T8 construct: gene PTK2
Experimental: as §1

IGF-1R(h) = molecular target: T9, IGF-1R(h) (Homo sapiens, UniProt P08069)
T9 construct: gene IGF1R
Experimental: as §1

PKCγ(h) = molecular target: T10, PKCγ(h) (Homo sapiens, UniProt P05129)
T10 construct: gene PRKCG
Experimental: as §1

Blk(m) = Blk(m) (Mus musculus, UniProt P16277)
Blk(m), sequence (P16277 whole entry): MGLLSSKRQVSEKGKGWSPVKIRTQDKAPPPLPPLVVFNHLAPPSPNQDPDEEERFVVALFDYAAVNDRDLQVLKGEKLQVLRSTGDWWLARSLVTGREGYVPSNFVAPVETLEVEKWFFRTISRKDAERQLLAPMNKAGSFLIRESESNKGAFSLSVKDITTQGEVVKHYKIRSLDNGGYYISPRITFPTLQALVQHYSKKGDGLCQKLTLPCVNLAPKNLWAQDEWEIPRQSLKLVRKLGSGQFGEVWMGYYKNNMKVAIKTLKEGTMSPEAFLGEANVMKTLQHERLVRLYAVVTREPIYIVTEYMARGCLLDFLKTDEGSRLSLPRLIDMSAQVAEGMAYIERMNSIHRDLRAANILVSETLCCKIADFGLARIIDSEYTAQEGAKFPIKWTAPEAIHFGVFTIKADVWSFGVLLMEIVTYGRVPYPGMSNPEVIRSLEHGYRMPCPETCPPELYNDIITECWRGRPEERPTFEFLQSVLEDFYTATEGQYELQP
Experimental: as §1

T1 sequence (P78368 whole entry): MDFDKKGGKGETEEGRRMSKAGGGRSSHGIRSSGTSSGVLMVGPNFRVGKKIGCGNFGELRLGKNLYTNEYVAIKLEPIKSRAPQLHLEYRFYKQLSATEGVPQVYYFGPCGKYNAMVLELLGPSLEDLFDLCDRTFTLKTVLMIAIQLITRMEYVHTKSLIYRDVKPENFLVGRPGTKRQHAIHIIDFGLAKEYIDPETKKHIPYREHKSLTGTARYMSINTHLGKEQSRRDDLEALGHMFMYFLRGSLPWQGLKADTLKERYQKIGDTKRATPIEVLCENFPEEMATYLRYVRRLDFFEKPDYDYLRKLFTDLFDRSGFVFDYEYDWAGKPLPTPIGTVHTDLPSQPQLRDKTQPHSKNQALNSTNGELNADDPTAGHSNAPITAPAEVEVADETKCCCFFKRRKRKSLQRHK

In the case of CC[C@@H](N)CNc1ccnc(-c2cc(-c3cnn(C)c3)ccc2O)n1 [CRT0066101], the inhibition at 1 µM (CK1γ2(h)) is reported as 0%, the inhibition at 1 µM (PKCθ(h)) is reported as 6% and the inhibition at 1 µM (Tie2 (h)) is reported as 4%. The inhibition at 1 µM (HIPK2(h)) was 55%, the inhibition at 1 µM (MST3(h)) was -6% and the inhibition at 1 µM (EphA7(h)) was -9%. For the same compound, the inhibition at 1 µM (PAK4(h)) was 4%, the inhibition at 1 µM (PKCβI(h)) was 11% and the inhibition at 1 µM (MST2(h)) was 20%. The inhibition at 1 µM (Rsk1(h)) was 48%, the inhibition at 1 µM (CDK2/cyclinA(h)) was 53% and the inhibition at 1 µM (LIMK1(h)) was 0%. For the same compound, the inhibition at 1 µM (DGKB) was -9%, the inhibition at 1 µM (EGFR(T790M)(h)) was -2% and the inhibition at 1 µM (FAK(h)) was -11%. It also gave an inhibition at 1 µM (IGF-1R(h)) of -14%, an inhibition at 1 µM (PKCγ(h)) of 7% and an inhibition at 1 µM (Blk(m)) of 12%.
